Measurements as given in patent publication US8802597B2, “Herbicidal pyrimidines” (E I du Pont de Nemours and Company, priority 2003, dated 2014).

Tests used:
Assay type in all cases: in vivo
corn (Zea mays) = assay: Test B pre/postemergence
Procedure, shortened: (§1)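 Test chemicals in a non-phytotoxic solvent mixture with surfactant were applied preemergence to planted seeds and postemergence to plants 2 to 18 cm tall (1- to 4-leaf stage). After 13 to 15 days in a greenhouse, injury was visually rated against untreated controls on a 0 to 100 scale.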

[1] = test system: crabgrass (Digitaria sanguinalis); assay: Test B pre/postemergence
Procedure, shortened: as §1

[2] = test system: morningglory (Ipomoea coccinea); assay: Test B pre/postemergence
Procedure, shortened: as §1

[3] = test system: giant foxtail (Setaria faberii); assay: Test B pre/postemergence
Procedure, shortened: as §1

[4] = test system: pigweed (Amaranthus retroflexus); assay: Test B pre/postemergence
Procedure, shortened: as §1

[5] = test system: barnyardgrass (Echinochloa crus-galli); assay: Test B pre/postemergence
Procedure, shortened: as §1

[6] = test system: velvetleaf (Abutilon theophrasti); assay: Test B pre/postemergence
Procedure, shortened: as §1

[7] = test system: wheat (Triticum aestivum); assay: Test B pre/postemergence
Procedure, shortened: as §1

[8] = test system: lambsquarters (Chenopodium album); assay: Test B pre/postemergence
Procedure, shortened: as §1

[9] = test system: Surinam grass (Brachiaria decumbens); assay: Test B pre/postemergence
Procedure, shortened: as §1

[10] = test system: cocklebur (Xanthium strumarium); assay: Test B pre/postemergence
Procedure, shortened: as §1

[11] = test system: blackgrass (Alopecurus myosuroides); assay: Test B postemergence; conditions: for Blackgrass plant response rating: 125 g ai/ha, scale 0 to 100 (0 no effect, 100 complete control); for Plant response rating, Blackgrass: 500 g ai/ha, scale 0 to 100
Procedure, shortened: as §1

wild oat (Avena fatua) = assay: Test B postemergence; conditions: for Oat, Wild plant response rating: 125 g ai/ha, scale 0 to 100 (0 no effect, 100 complete control); for Plant response rating, Oat, Wild: 500 g ai/ha, scale 0 to 100
Procedure, shortened: as §1

rice (Oryza sativa) = assay: Test B flooded paddy test; conditions: Flood, 1000 g ai/ha; scale 0 to 100
Procedure, shortened: (§2)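 Visual injury scoring (0 = no effect, 100 = complete control) versus controls made 13 to 15 days after treatment in the greenhouse. Test species were grown in flooded paddy to the 2-leaf stage: rice, barnyardgrass, umbrella sedge, duck salad.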

[12] = test system: barnyardgrass (Echinochloa crus-galli); assay: Test B flooded paddy test; conditions: Flood, 1000 g ai/ha; scale 0 (no effect) to 100 (complete control)
Procedure, shortened: as §2

[13] = test system: umbrella sedge (Cyperus difformis); assay: Test B flooded paddy test; conditions: Flood, 1000 g ai/ha; scale 0 to 100
Procedure, shortened: as §2

[14] = test system: duck salad (Heteranthera limosa); assay: Test B flooded paddy test; conditions: Flood, 1000 g ai/ha; scale 0 to 100
Procedure, shortened: as §2

[15] = Postemergence, 125 g ai/ha, scale 0 to 100 (0 no effect, 100 complete control)
[16] = Postemergence, 500 g ai/ha, scale 0 to 100
[17] = Preemergence, 125 g ai/ha, scale 0 to 100 (0 no effect, 100 complete control)
[18] = Preemergence, 500 g ai/ha, scale 0 to 100 (0 no effect, 100 complete control)

## CCOC(=O)Cc1nc(C2CC2)nc(N)c1Br [Compound 12]
Corn (Zea mays); [15]
  Corn plant response rating: 0
Corn (Zea mays); [16]
  Plant response rating, Corn: 0
Corn (Zea mays); [17]
  Plant response rating, Corn: 0
Corn (Zea mays); [18]
  Corn plant response rating: 30
[1]; [15]
  Crabgrass plant response rating: 10
[1]; [16]
  Plant response rating, Crabgrass: 30
[1]; [17]
  Plant response rating, Crabgrass: 20
[1]; [18]
  Crabgrass plant response rating: 70
[2]; [15]
  Morningglory plant response rating: 60
[2]; [16]
  Plant response rating, Morningglory: 80
[2]; [17]
  Plant response rating, Morningglory: 70
[2]; [18]
  Morningglory plant response rating: 90
[3]; [15]
  Foxtail, Giant plant response rating: 0
[3]; [16]
  Plant response rating, Foxtail, Giant: 30
[3]; [17]
  Plant response rating, Foxtail, Giant: 20
[3]; [18]
  Foxtail, Giant plant response rating: 50
[4]; [15]
  Pigweed plant response rating: 50
[4]; [16]
  Plant response rating, Pigweed: 80
[4]; [17]
  Plant response rating, Pigweed: 80
[4]; [18]
  Pigweed plant response rating: 90
[5]; [15]
  Barnyardgrass plant response rating: 0
[5]; [16]
  Plant response rating, Barnyardgrass: 40
[5]; [17]
  Plant response rating, Barnyardgrass: 50
[5]; [18]
  Barnyardgrass plant response rating: 80
[6]; [15]
  Velvetleaf plant response rating: 20
[6]; [16]
  Plant response rating, Velvetleaf: 60
[6]; [17]
  Plant response rating, Velvetleaf: 80
[6]; [18]
  Velvetleaf plant response rating: 90
[7]; [15]
  Wheat plant response rating: 0
[7]; [16]
  Plant response rating, Wheat: 0
[7]; [17]
  Plant response rating, Wheat: 30
[7]; [18]
  Wheat plant response rating: 60
[8]; [15]
  Lambsquarters plant response rating: 60
[8]; [16]
  Plant response rating, Lambsquarters: 80
[8]; [17]
  Plant response rating, Lambsquarters: 90
[8]; [18]
  Lambsquarters plant response rating: 100
[9]; [15]
  Surinam Grass plant response rating: 0
[9]; [16]
  Plant response rating, Surinam Grass: 0
[9]; [17]
  Plant response rating, Surinam Grass: 0
[10]; [15]
  Cocklebur plant response rating: 40
[10]; [16]
  Plant response rating, Cocklebur: 70
[10]; [17]
  Plant response rating, Cocklebur: 80
[10]; [18]
  Cocklebur plant response rating: 90
[11]
  Blackgrass plant response rating: 0
  Plant response rating, Blackgrass: 0
Wild oat (Avena fatua)
  Oat, Wild plant response rating: 0
  Plant response rating, Oat, Wild: 0
Rice (Oryza sativa)
  Plant response rating, Rice: 20
[12]
  Plant response rating, Barnyardgrass: 0
[13]
  Plant response rating, Sedge, Umbrella: 0
[14]
  Plant response rating, Ducksalad: 20

## COC(=O)Cc1nc(C2CC2)nc(N)c1Br [Compound 13]
Corn (Zea mays); [15]
  Corn plant response rating: 0
Corn (Zea mays); [16]
  Plant response rating, Corn: 0
Corn (Zea mays); [18]
  Corn plant response rating: 30
[1]; [15]
  Crabgrass plant response rating: 20
[1]; [16]
  Plant response rating, Crabgrass: 30
[1]; [17]
  Plant response rating, Crabgrass: 50
[1]; [18]
  Crabgrass plant response rating: 70
[2]; [15]
  Morningglory plant response rating: 50
[2]; [16]
  Plant response rating, Morningglory: 70
[2]; [17]
  Plant response rating, Morningglory: 90
[2]; [18]
  Morningglory plant response rating: 100
[3]; [15]
  Foxtail, Giant plant response rating: 10
[3]; [16]
  Plant response rating, Foxtail, Giant: 20
[3]; [17]
  Plant response rating, Foxtail, Giant: 20
[3]; [18]
  Foxtail, Giant plant response rating: 40
[4]; [15]
  Pigweed plant response rating: 50
[4]; [16]
  Plant response rating, Pigweed: 70
[4]; [17]
  Plant response rating, Pigweed: 80
[4]; [18]
  Pigweed plant response rating: 90
[5]; [15]
  Barnyardgrass plant response rating: 0
[5]; [16]
  Plant response rating, Barnyardgrass: 10
[5]; [17]
  Plant response rating, Barnyardgrass: 40
[5]; [18]
  Barnyardgrass plant response rating: 80
[6]; [15]
  Velvetleaf plant response rating: 40
[6]; [16]
  Plant response rating, Velvetleaf: 50
[6]; [17]
  Plant response rating, Velvetleaf: 80
[6]; [18]
  Velvetleaf plant response rating: 90
[7]; [15]
  Wheat plant response rating: 0
[7]; [16]
  Plant response rating, Wheat: 0
[7]; [17]
  Plant response rating, Wheat: 40
[7]; [18]
  Wheat plant response rating: 60
[8]; [15]
  Lambsquarters plant response rating: 60
[8]; [16]
  Plant response rating, Lambsquarters: 70
[8]; [17]
  Plant response rating, Lambsquarters: 90
[8]; [18]
  Lambsquarters plant response rating: 100
[9]; [15]
  Surinam Grass plant response rating: 0
[9]; [16]
  Plant response rating, Surinam Grass: 0
[9]; [17]
  Plant response rating, Surinam Grass: 0
[10]; [15]
  Cocklebur plant response rating: 10
[10]; [16]
  Plant response rating, Cocklebur: 40
[10]; [17]
  Plant response rating, Cocklebur: 90
[10]; [18]
  Cocklebur plant response rating: 100
[11]
  Blackgrass plant response rating: 10
  Plant response rating, Blackgrass: 20
Wild oat (Avena fatua)
  Oat, Wild plant response rating: 0
  Plant response rating, Oat, Wild: 0
Rice (Oryza sativa)
  Plant response rating, Rice: 0
[12]
  Plant response rating, Barnyardgrass: 0
[13]
  Plant response rating, Sedge, Umbrella: 0
[14]
  Plant response rating, Ducksalad: 0
